Consider 45 compounds from US11279703B2, “Fused pyrimidine compounds as BRD4 and JAK2 dual inhibitors and methods for use thereof” (APTOSE BIOSCIENCES INC., priority 2016, dated 2022).

The target in one test is BRD4-BD1 (Homo sapiens (Human), UniProt O60885). Nature of the test: AlphaLisa bromodomain binding assay, BRD4-BD1. The settings on record: Table 6; read-out: BRD4(1) IC50. The source says:
An AlphaLisa assay was used to observe bromodomain binding and measure IC50s for the compounds disclosed herein. An AlphaLisa assay is a bead-based assay used to detect interactions between bromodomains and polyacetylated histone peptides. Donor and acceptor beads bound to target and ligand are brought into proximity by this protein-protein interaction.
Equipment Required • 1. […] Plate centrifuge • 3. Plate shaker • 4. […] Single channel and multi-channel pipettes • 6. Microplate reader (Pherastar)
Stock and Final Assay Concentrations (FAC) • 1. All reference and test compounds are made at a concentration of 10 mM in DMSO. Compounds are serially diluted in DMSO and a FAC starting from 10 μM to 10 point 3 fold serial dilutions is arrived. FAC of DMSO is 1%. • 2. Enzyme stock and FAC
Biotinylated substrate (Acetylated histone H4, biotinylated substrate—cat no. AS64989-025, Anaspec) stock and FAC
• 4. Acceptor and donor beads stock and FAC
Buffers • For the enzyme and substrate dilution following buffer is used (for 50 ml) • HEPES: 50 mM 2.5 ml • NaCl: 25 mM 1.25 ml • DTT: 10 mM 0.05 ml • BSA: 0.1% 0.05 g • MilliQ water: 45.7 ml • For dilution of acceptor and donor beads AlphaLISA 5× epigenetics Buffer Perkin Elmer (Cat: AL008C) is used at 1× concentration.
Procedure • 1. […] Tap the plate gently • 3. […] Cover with plate sealer • 5. […] Incubate the plate at room temperature for 10 minutes • 7. Add 10 μl of the substrate • 8. Cover with plate sealer • 9. […] Cover with plate sealer • 14. […] Cover with plate sealer • 18.
(§1) The percent inhibition is calculated in the excel analysis template and the IC50 values are subsequently determined using a sigmoidal dose-response curve (variable slope) using GraphPad Prism® 5 software.

In the next test the target is JAK2 (Homo sapiens (Human), UniProt O60674). Nature of the test: HTRF kinase assay, JAK2. The class given is biochemical.
JAK2, sequence (O60674 whole entry): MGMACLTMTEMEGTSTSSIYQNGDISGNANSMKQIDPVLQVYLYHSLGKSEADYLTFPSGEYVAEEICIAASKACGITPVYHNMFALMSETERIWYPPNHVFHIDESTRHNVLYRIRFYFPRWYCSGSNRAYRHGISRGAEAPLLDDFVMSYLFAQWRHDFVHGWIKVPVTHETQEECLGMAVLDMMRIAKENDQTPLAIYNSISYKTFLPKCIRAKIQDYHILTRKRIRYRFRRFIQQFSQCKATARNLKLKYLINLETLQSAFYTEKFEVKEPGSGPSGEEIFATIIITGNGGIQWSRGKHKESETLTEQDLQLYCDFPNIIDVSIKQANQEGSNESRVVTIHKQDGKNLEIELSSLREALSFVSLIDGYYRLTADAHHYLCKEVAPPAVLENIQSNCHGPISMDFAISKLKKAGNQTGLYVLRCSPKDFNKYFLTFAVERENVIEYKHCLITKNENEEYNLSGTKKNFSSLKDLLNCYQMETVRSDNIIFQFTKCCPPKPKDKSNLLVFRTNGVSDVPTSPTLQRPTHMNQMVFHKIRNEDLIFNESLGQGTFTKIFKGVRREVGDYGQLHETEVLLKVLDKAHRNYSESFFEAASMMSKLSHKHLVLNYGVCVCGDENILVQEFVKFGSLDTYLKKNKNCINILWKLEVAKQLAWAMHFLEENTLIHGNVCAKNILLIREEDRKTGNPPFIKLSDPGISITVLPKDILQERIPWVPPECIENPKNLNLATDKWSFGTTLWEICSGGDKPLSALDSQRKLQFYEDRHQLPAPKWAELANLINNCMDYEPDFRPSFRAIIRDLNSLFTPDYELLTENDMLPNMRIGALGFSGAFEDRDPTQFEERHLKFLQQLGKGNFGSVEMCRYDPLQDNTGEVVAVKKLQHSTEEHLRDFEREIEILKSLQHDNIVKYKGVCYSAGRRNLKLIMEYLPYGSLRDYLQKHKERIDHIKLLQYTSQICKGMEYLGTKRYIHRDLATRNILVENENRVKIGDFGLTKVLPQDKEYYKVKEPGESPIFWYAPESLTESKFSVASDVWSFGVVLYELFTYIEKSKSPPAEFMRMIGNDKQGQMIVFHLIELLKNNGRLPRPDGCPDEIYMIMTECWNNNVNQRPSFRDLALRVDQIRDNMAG
From the text: A kinase assay with HTRF was used to observe JAK activity and calculate the IC50s of compounds disclosed herein. HTRF is an enzymatic assay used to determine the amount of phosphorylated peptide. FRET (Fluorescence Resonance Energy Transfer) is based on the transfer of energy between two fluorophores—a donor and an acceptor—when in close proximity. Molecular interactions between biomolecules can be assessed by coupling each partner with a fluorescent label and by detecting the level of energy transfer. The amount of phopshorylated peptide can be detected using a combination of a Eu 3+Cryptate labeled anti-phospho residue antibody, SA-XL665 and a biotinylated substrate. The signal is proportional to the concentration of phospho-residues.
Equipment Required • 1. […] Plate centrifuge • 3. Plate shaker • 4. […] Single channel and multi-channel pipettes • 6. Microplate reader (Pherastar)]
Stock and Final Assay Concentrations (FAC) • 1. All reference and test compounds are made at a concentration of 10 mM in DMSO. Compounds are serially diluted in DMSO and a FAC starting from 10 μM to 10 point 3 fold serial dilutions is arrived. For Ruxolitinib the starting FAC is 1 μM. FAC of DMSO is 1%. • 2. Enzyme stock and FAC
• JAK-1: Invtirogen Cat: PR8767C • JAK-2: Invtirogen Cat: PR7820B • JAK-3: Invtirogen Cat: PR7507B • 3. Substrate (synthetic peptide-Biotinylated-N-terminal tag-[…] from Biopeptide) stock and FAC
• Adenosine 5′-triphosphate disodium salt hydrate: Sigma Cat: A26209 • 5. […] Buffers • Base buffer (for 50 ml)
• HTRF buffer: • 50 mM Tris-HCl, pH—7.5 • 100 mM NaCl • 0.1% BSA • 0.05% Tween20 • 0.5 mM EDTA
To a 384 well black-plate: • 1. Add 17 μL of the buffer to each well of the 384-well black plate • 2. […] Add 5 μl of the enzyme to each well of the plate • 4. Add 10 μl of the substrate and ATP mix to all the wells • 5. Cover with plate sealer • 6. […] Incubate at room temperature for 1 hour on shaker • 8. […] Add 37.5 μL of the HTRF mix to these wells. • 9. Incubate the plate at room temperature on shaker for 45 minutes. • 10.
as §1
For orientation: TR-FRET usually uses a lanthanide donor and a delayed reading to cut background.

Turning to `CC(C)(C)S(=O)(=O)Nc1cccc(-n2ccc3cnc(Nc4ccc(N5CCN(S(C)(=O)=O)CC5)cc4)nc32)c1`, the IC50 (in general, the concentration at which inhibition is half-maximal) is 4600 nM on BRD4-BD1 and 40 nM at JAK2 (Table 6). For `CC(C)(C)S(=O)(=O)Nc1cccc(-n2ccc3cnc(Nc4ccc(N5CCNCC5)cc4)nc32)c1` [drawing 306] the same measures were 394 nM and 10 nM.

In the case of `CN1CCN(c2ccc(Nc3ncc4ccn(-c5ccc(F)c(NS(=O)(=O)C(C)(C)C)c5)c4n3)cc2F)CC1`, the IC50 amounted to 149 nM at BRD4-BD1 and 62 nM at JAK2 (Table 6). `CN1CCN(c2ccc(Nc3ncc4scc(-c5cccc(NS(=O)(=O)C(C)(C)C)c5)c4n3)cc2F)CC1`: the IC50 on BRD4-BD1 came to 393 nM; at JAK2 (Table 6), 18 nM. As to `CN(C)C1CCN(c2ccc(Nc3ncc4ccn(-c5ccc(F)c(NS(=O)(=O)C(C)(C)C)c5)c4n3)cc2)CC1`, the values for the IC50 at BRD4-BD1 and on JAK2 (Table 6) were 258 nM and 82 nM, respectively. As to `CN1CCN(c2ccc(Nc3nc(Nc4cccc(NS(=O)(=O)C(C)(C)C)c4)c4ncsc4n3)cc2)CC1`, the results for the IC50 on BRD4-BD1 and at JAK2 (Table 6) were 1540 nM and 10000 nM, respectively. The corresponding values for `CC(=O)N1CCC(c2ccc(Nc3ncc4ccn(-c5cccc(NS(=O)(=O)C6CC6)c5)c4n3)cc2)CC1` are 10000 nM and 140 nM.

In the case of `CN1CCN(c2ccc(Nc3cc(Nc4cccc(NS(=O)(=O)C(C)(C)C)c4)c4sccc4n3)cc2)CC1`, the IC50 at BRD4-BD1 was determined as 2860 nM; at JAK2 (Table 6) it was 4650 nM. For `CNC1CCN(C(=O)c2ccc(Nc3ncc4scc(-c5cccc(NS(=O)(=O)C(C)(C)C)c5)c4n3)cc2F)CC1` the same measures were 298 nM and 12 nM. For the compound `CN1CCN(c2ccc(Nc3ncc4ccn(-c5ccc(CNS(=O)(=O)C(C)(C)C)cc5)c4n3)cc2)CC1` [drawing 70], at JAK2 (Table 4), the IC50 stood at 0.18 nM. As to `CN1CCN2c3ccc(Nc4ncc5ccn(-c6cccc(NS(=O)(=O)C(C)(C)C)c6)c5n4)cc3CC2C1` (stereo not drawn), the IC50 on BRD4-BD1 stood at 366 nM; at JAK2 (Table 6), 14 nM. The corresponding values for `O=C(NC1CCNCC1)c1ccc(Nc2ncc3ccn(-c4cccc(NS(=O)(=O)C5CC5)c4)c3n2)cc1` are 2100 nM and 40 nM. The corresponding values for `Cc1ccc(-n2ccc3cnc(Nc4ccc(N5CCNCC5)cc4)nc32)cc1NS(=O)(=O)C(C)(C)C` are 641 nM and 176 nM.

For `CN(C)C1CCN(c2ccc(Nc3ncc4ccn(-c5cccc(NS(=O)(=O)C(C)(C)C)c5)c4n3)cc2)C1` (stereo not drawn), the IC50 on BRD4-BD1 stood at 854 nM; at JAK2 (Table 6) it was 37 nM. On to `CC1CNCC(C)C1Nc1nc(Nc2cccc(NS(=O)(=O)C(C)(C)C)c2)c2ccsc2n1` (stereo not drawn), for which the IC50 at BRD4-BD1 and on JAK2 (Table 6) was 10000 nM in each case. Consider `O=S(=O)(Nc1cccc(-n2ccc3cnc(Nc4ccc(N5CCNCC5)cc4)nc32)c1)C1CC1` [drawing 63], for which the 50% inhibitory concentration (IC50) on JAK2 (Table 3) was found to be 2 nM.

In the case of `Cc1cnc(Nc2ccc(N3CCN(C)CC3)cc2)nc1Nc1cccc(NS(=O)(=O)C(C)(C)C)c1` [drawing 396], the IC50 on BRD4-BD1 turned out to be 155 nM; at JAK2 (Table 6) it was 7 nM. For `CN1CCN(c2ccc(Nc3ncc4ccn(-c5ccc(F)c(NS(=O)(=O)C(C)(C)C)c5)c4n3)cc2)CC1` [drawing 340] the same measures were 228 nM and 188 nM. For `O=S(=O)(Nc1cccc(-n2ccc3cnc(Nc4ccc(C5CCNCC5)cc4)nc32)c1)C1CC1`, the IC50 at BRD4-BD1 is 3210 nM; on JAK2 (Table 6) it was 71 nM.

As to `CN1CCC(Nc2nc(Nc3cccc(NS(=O)(=O)C(C)(C)C)c3)c3cc[nH]c3n2)CC1`, the results for the IC50 on BRD4-BD1 and at JAK2 (Table 6) were 7080 nM and 10000 nM, respectively. With `Cc1cnc(Nc2ccc(N3CCN(C)CC3)cc2)nc1-n1ccc(C(=O)NC2CC2)c1`, the IC50 on JAK2 (Table 6) turned out to be 30 nM.

`CN1CCN2c3c(F)cc(Nc4ncc5ccn(-c6ccc(F)c(NS(=O)(=O)C(C)(C)C)c6)c5n4)cc3CC2C1` (stereo not drawn): the IC50 at BRD4-BD1 was 383 nM; on JAK2 (Table 6), 56 nM. As for `CC(=O)N1CCN(c2ccc(Nc3ncc4ccn(-c5cccc(NS(=O)(=O)C6CC6)c5)c4n3)cc2)CC1`, the results for the IC50 at BRD4-BD1 and on JAK2 (Table 6) were 5730 nM and 24900 nM, respectively. For `CN1CCN(c2ccc(Nc3nc(Nc4cccc(NS(=O)(=O)C(C)(C)C)c4)c4cc[nH]c4n3)cc2)CC1` the same measures were 1680 nM and 32 nM. As to `CN1CCN(c2ccc(Nc3ncc4ccn(-c5cccc(NS(=O)(=O)C6CC6)c5)c4n3)cc2)CC1` [drawing 61], on JAK2 (Table 3), the IC50 is 2.5 nM.

In the case of `CN1CCN(c2ccc(Nc3ncc4ccn(-c5ccc(CNS(=O)(=O)C(C)(C)C)cc5)c4n3)cc2)CC1` [drawing 378], the IC50 was determined as 10000 nM at BRD4-BD1 and 0.18 nM at JAK2 (Table 6). The corresponding values for `CN(C)CC1CCN(c2ccc(Nc3ncc4ccn(-c5ccc(F)c(NS(=O)(=O)C(C)(C)C)c5)c4n3)cc2F)CC1` are 143 nM and 83 nM.

As to `CNCCOc1ccc(Nc2ncc3ccn(-c4cccc(NS(=O)(=O)C(C)(C)C)c4)c3n2)cc1F` [drawing 467], the IC50 worked out at 1300 nM on BRD4-BD1 and 79 nM on JAK2 (Table 6). The corresponding values for `Cc1cnc(Nc2ccc(N3CCN(C)CC3)cc2)nc1Nc1cccc(NS(=O)(=O)C(C)(C)C)c1` [drawing 281] are 228 nM and 10 nM. The corresponding values for `CN(C)C(=O)C1CCN(c2ccc(Nc3ncc4ccn(-c5ccc(F)c(NS(=O)(=O)C(C)(C)C)c5)c4n3)cc2F)CC1` are 491 nM and 129 nM. For `CN1CCN(c2ccc(Nc3ncc4cccc(-c5cccc(NS(=O)(=O)C(C)(C)C)c5)c4n3)cc2)CC1` the same measures were 3800 nM and 10 nM. Turning to `CN1CCN(c2ccc(Nc3ncc4ccn(-c5ccc6c(c5)CCN6S(=O)(=O)C(C)(C)C)c4n3)cc2)CC1` [drawing 71], the IC50 at JAK2 (Table 4) worked out at 0.6 nM. On to `O=C1Cc2c(cccc2-c2ccnc(Nc3ccccc3)n2)N1`, for which the IC50 at JAK2 (Table 6) was 6780 nM. Same read-out and setting: in the case of `CN1CCN(c2ccc(Nc3nccc(Nc4cccc5c4CC(=O)N5)n3)cc2)CC1` it was 387 nM. Turning to `CC(=O)N1CCN(c2ccc(Nc3ncc4ccn(-c5cccc(NS(=O)(=O)C(C)(C)C)c5)c4n3)cc2)CC1`, the half-maximal inhibitory concentration (IC50) at JAK2 (Table 6) amounted to 45 nM. On to `CN1CCN(c2ccc(Nc3ncc4ccn(-c5ccc(NS(=O)(=O)C(C)(C)C)cc5)c4n3)cc2)CC1` [drawing 69], for which, at JAK2 (Table 4), the IC50 was determined as 0.7 nM.

As for `Cc1sc2c(c1C)C(c1ccc(Cl)cc1)=N[C@@H](CC(=O)OC(C)(C)C)c1nnc(C)n1-2`, the IC50 at JAK2 (Table 6) worked out at 10000 nM.

Regarding `CN(C)C1CCN(c2ccc(Nc3ncc4ccn(-c5cccc(NS(=O)(=O)C(C)(C)C)c5)c4n3)cc2F)CC1` [drawing 65], on JAK2 (Table 3), the IC50 came out at 4.4 nM.

Take `CN1CCN(c2ccc(Nc3ncc4ccn(-c5cccc(NS(=O)(=O)c6ccccc6)c5)c4n3)cc2)CC1` [drawing 62]: the IC50 at JAK2 (Table 3) is 3 nM. Still for that read-out and setting: in the case of `CN1CCN(c2ccc(Nc3ncc4scc(-c5cccc(NS(=O)(=O)C(C)(C)C)c5)c4n3)cc2)CC1` it was 4.8 nM; in that of `CN1CCN(c2ccc(Nc3ncc4ccn(-c5cccc(NS(=O)(=O)C6CC6)c5)c4n3)cc2)CC1` [drawing 64], 4.3 nM. As for `COc1cccc(Nc2nccc(-c3cccc4c3CC(=O)N4)n2)c1`, the half-inhibitory concentration (IC50) on JAK2 (Table 6) was 2250 nM.

`Cc1noc(C)c1-c1cccc(-n2ccc3cnc(Nc4ccc(N5CCN(C)CC5)cc4)nc32)c1` [drawing 67]: the IC50 on JAK2 (Table 3) was 3 nM. Regarding `O=S(=O)(Nc1cccc(-n2ccc3cnc(Nc4ccc(N5CCNCC5)cc4)nc32)c1)C1CC1` [drawing 68], the IC50 at JAK2 (Table 3) came to 5 nM.

Regarding `O=C(NC1CC1)c1ccn(-c2nc(NC3CCNCC3)nc3sccc23)c1` [drawing 229], at BRD4-BD1, the half-maximal inhibitory concentration (IC50) worked out at 1830 nM.
